pIC50: −log10 of the molar value. Structures can show the parent of a compound that is named as a salt.
Assays:
[1] = Cytotoxicity MTT assay, 24 h, PAR cells; type: cell-based; conditions: mouse, parental (PAR) L5178 mouse T-cell lymphoma cells, read-out: Cytotoxic effect IC50
Method: (§1) The cytotoxicity of compounds 7–20 was examined in both aforementioned PAR and MDR mouse T-lymphoma cell lines, using the MTT assay to estimate IC50 values. The selectivity index for cytotoxic action on MDR with respect to PAR cells was calculated (SI, Table 3). […] This range of SI may indicate ABCB1-efflux pump substrate properties for the whole series (7–20), especially distinct in the case of 19 (SI ≤ 0.29), and slightly weaker for 8, 12, 16, and 18.
(§2) L5178 mouse T-cell lymphoma cells (PAR) (ECACC Cat. No. 87111908, obtained from FDA, Silver Spring, MD, USA) were transfected with pHa MDR1/A retrovirus, as previously described by Cornwell et al.. The ABCB1-expressing cell line L5178Y (MDR) was selected by culturing the infected cells with colchicine. The parental L5178 mouse T-cell lymphoma cells and the L5178Y human ABCB1-transfected subline were cultured in McCoy’s 5A medium (Sigma-Aldrich, St Louis, MO, USA) supplemented with 10% heat-inactivated horse serum (Sigma-Aldrich, St Louis, MO, USA), 200 mM L-glutamine (Sigma-Aldrich, St Louis, MO, USA), and a penicillin-streptomycin (Sigma-Aldrich, St Louis, MO, USA) mixture in concentrations of 100 U/L and 10 mg/L, respectively. The cell lines were incubated at 37 °C, in a 5% CO2, 95% air atmosphere.
(§3) Cytotoxicity and antiproliferative assays were performed following the procedure described in the literature. Parental and multidrug-resistant mouse T-lymphoma cells were used to determine the effect of the arylideneimidazolones on the growth of cells. The effects of increasing concentrations of arylideneimidazolones on cell growth were tested in 96-well flat-bottomed microtiter plates. The compounds were diluted in a volume of 100 μL of medium.
(§4) In the case of the mouse T-lymphoma cells, the two-fold serial dilutions were prepared in 100 μL of McCoy’s 5A, horizontally. The parental (PAR) and multidrug-resistant (MDR) mouse T-lymphoma cells were adjusted to a density of 1 × 10^4 cells (for cytotoxic assay) and 6 × 10^3 (for antiproliferative assay) in 100 μL of McCoy’s 5A medium and were added to each well, with the exception of the medium control wells.
(§5) The culture plates were incubated at 37 °C for 24 h (for cytotoxicity assay) and 72 h (for antiproliferative assay); at the end of the incubation period, 20 μL of MTT (thiazolyl blue tetrazolium bromide, Sigma) solution (from a stock solution of 5 mg/mL) were added to each well. After incubation at 37 °C for 4 h, 100 μL of sodium dodecyl sulfate (SDS) (Sigma) solution (10% in 0.01 M HCI) were added to each well and the plates were further incubated at 37 °C overnight. Cell growth was determined by measuring the optical density (OD) at 540/630 nm with a Multiscan EX ELISA reader (Thermo Labsystems, Cheshire, WA, USA).
(§6) Results have been expressed in terms of IC50, defined as the inhibitory dose that reduces the growth of the cells exposed to the tested compounds by 50%, each representing the mean of a minimum of three independent experiments.

[2] = Cytotoxicity MTT assay, 24 h, MDR cells; type: cell-based; conditions: mouse; for IC50 at 24 h: MDR cells, MTT, read-out: Cytotoxic effect IC50; for selectivity ratio at 24 h: cytotoxic action on MDR with respect to PAR cells, read-out: SI (selectivity index), cytotoxicity
Method: as §1, §2, §3, §4, §5, §6

[3] = tested on: parental (PAR) mouse T-lymphoma cells; test: Antiproliferative MTT assay, 72 h, PAR cells; type: cell-based; conditions: read-out: Antiproliferative effect IC50
Method: (§7) The ABCB1-expressing cell line L5178Y (MDR) was selected by culturing the infected cells with colchicine. The parental L5178 mouse T-cell lymphoma cells and the L5178Y human ABCB1-transfected subline were cultured in McCoy’s 5A medium (Sigma-Aldrich, St Louis, MO, USA) supplemented with 10% heat-inactivated horse serum (Sigma-Aldrich, St Louis, MO, USA), 200 mM L-glutamine (Sigma-Aldrich, St Louis, MO, USA), and a penicillin-streptomycin (Sigma-Aldrich, St Louis, MO, USA) mixture in concentrations of 100 U/L and 10 mg/L, respectively.
as §3, §4
(§8) Cell growth was determined by measuring the optical density (OD) at 540/630 nm with a Multiscan EX ELISA reader (Thermo Labsystems, Cheshire, WA, USA).

[4] = tested on: multidrug-resistant (MDR) mouse T-lymphoma cells; test: Antiproliferative MTT assay, 72 h, MDR cells; type: cell-based; conditions: for SI (selectivity index), antiproliferative: MDR with respect to PAR cells; for pIC50: Mus musculus, MDR cells, 72 h, MTT, read-out: Antiproliferative effect IC50
Method: as §7, §3, §4, §8

ABCB1 efflux pump = ABCB1 efflux pump (Homo sapiens, UniProt P08183); test: Rhodamine 123 accumulation assay (flow cytometry); conditions: for FAR Quotient (%): FAR of compound related to FAR of VER tested at 20 µM; for FAR (fluorescence activity ratio): rhodamine 123 accumulation, MDR vs PAR mouse T-lymphoma cells
Chain of ABCB1 efflux pump (P08183 whole entry): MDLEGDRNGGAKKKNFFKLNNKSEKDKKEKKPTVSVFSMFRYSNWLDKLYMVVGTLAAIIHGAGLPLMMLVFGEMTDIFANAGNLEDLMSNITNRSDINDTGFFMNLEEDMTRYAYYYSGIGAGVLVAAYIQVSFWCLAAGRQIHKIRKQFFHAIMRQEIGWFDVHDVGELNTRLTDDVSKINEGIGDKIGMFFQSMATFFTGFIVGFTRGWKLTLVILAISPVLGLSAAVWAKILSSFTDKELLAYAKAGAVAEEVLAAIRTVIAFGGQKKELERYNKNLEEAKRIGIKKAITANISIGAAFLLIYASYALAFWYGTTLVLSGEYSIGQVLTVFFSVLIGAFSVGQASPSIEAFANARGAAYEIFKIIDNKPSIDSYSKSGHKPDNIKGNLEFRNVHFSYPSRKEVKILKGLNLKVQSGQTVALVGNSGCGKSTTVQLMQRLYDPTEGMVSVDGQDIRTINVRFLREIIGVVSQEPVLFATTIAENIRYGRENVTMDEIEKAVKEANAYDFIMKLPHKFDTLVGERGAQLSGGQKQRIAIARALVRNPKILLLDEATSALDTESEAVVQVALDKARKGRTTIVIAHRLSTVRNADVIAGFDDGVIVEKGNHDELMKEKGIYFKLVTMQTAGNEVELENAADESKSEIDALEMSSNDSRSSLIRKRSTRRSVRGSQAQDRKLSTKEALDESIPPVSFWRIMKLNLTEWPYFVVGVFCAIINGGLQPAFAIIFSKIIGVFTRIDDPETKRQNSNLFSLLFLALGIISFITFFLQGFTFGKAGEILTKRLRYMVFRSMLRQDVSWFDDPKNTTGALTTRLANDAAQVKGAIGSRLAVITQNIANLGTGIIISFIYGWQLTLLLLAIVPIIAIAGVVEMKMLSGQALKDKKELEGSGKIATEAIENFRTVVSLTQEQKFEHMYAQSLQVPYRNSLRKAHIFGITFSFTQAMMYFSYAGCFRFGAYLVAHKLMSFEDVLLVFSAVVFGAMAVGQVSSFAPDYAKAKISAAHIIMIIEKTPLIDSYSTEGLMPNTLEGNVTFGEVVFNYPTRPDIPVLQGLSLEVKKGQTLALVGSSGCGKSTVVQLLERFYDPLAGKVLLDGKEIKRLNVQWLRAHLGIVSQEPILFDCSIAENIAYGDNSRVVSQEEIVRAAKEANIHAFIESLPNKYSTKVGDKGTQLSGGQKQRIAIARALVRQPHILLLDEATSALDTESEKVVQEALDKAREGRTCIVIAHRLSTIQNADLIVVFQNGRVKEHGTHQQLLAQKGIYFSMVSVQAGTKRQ
Method: The study was carried out on mouse T-lymphoma cell lines, including the parental sensitive line (PAR) and its multidrug-resistant subline (MDR) transfected with the human MDR1 (ABCB1) gene. […] The fluorescence activity ratio (FAR), as a measure of the efflux pump modulating properties, was calculated based on the fluorescence data obtained [23, 24, 25]. […] The parental L5178 mouse T-cell lymphoma cells and the L5178Y human ABCB1-transfected subline were cultured in McCoy’s 5A medium (Sigma-Aldrich, St Louis, MO, USA) supplemented with 10% heat-inactivated horse serum (Sigma-Aldrich, St Louis, MO, USA), 200 mM L-glutamine (Sigma-Aldrich, St Louis, MO, USA), and a penicillin-streptomycin (Sigma-Aldrich, St Louis, MO, USA) mixture in concentrations of 100 U/L and 10 mg/L, respectively.
The potency of the tested compounds as inhibitors of the ABCB1 efflux pump was determined using a fluorescence-based detection system, described previously in the literature [23, 26]. […] The parental (PAR) and multidrug-resistant (MDR) mouse T-lymphoma cells were adjusted to a density of 2 × 10^6/mL, re-suspended in serum-free McCoy’s 5A medium, and distributed in 0.5 mL aliquots into Eppendorf centrifuge tubes. […] The fluorescence intensity of the cell population was measured with a Partec CyFlow flow cytometer (Partec, Munster, Germany). […] The mean fluorescence intensity (%) was calculated for the treated MDR and PAR mouse T-lymphoma cells as compared to the untreated cells.

[5] = concentration 20 µM, VER values for assay group 1 / 2

Structure (SMILES) | pIC50 [4] | melting point [°C] | FAR Quotient (%) (ABCB1 efflux pump; concentration 2 µM) | FAR (fluorescence activity ratio) (ABCB1 efflux pump; concentration 2 µM) | FAR Quotient (%) (ABCB1 efflux pump; concentration 20 µM) | FAR (fluorescence activity ratio) (ABCB1 efflux pump; [5]) | IC50 at 24 h [1] [µM] | IC50 at 24 h [2] [µM] | selectivity ratio at 24 h [2] | pIC50 [3] | SI (selectivity index), antiproliferative [4]
NC1=N/C(=C\c2ccc(-c3ccccc3)cc2)C(=O)N1CCN1CCOCC1 (as salt: hydrochloride) [Compound 14] |  | 266 to 270 |  |  |  |  |  |  |  |  | 
Cl.O=C1N=C(N2CCC(N3CCOCC3)CC2)N/C1=C\c1c2ccccc2cc2ccccc12 [Compound 13, (Z)-5-(Anthracen-10-ylmethylene)-2-(4-morpholinopiperidin-1-yl)-imidazol-4(5H)-one hydrochloride] | 4.31 | 303 to 305 | 6.04 | 0.968 | 12.94 | 2.073 | 82.2 | > 100 | ≤ 0.82 | 4.76 | 0.36
NC1=N/C(=C\c2c3ccccc3cc3ccccc23)C(=O)N1CCCN1CCOCC1 [Compound 19] | 4.36 |  | 7.94 | 1.272 | 10.08 | 1.615 | 28.6 | > 100 | ≤ 0.29 | 4.84 | 0.33
Cl.O=C1N=C(N2CCC(N3CCOCC3)CC2)N/C1=C\c1ccc(-c2ccccc2)cc1 [Compound 8, (Z)-5-(Biphen-4-ylmethylene)-2-(4-morpholinopiperidin-1-yl)-imidazol-4(5H)-one hydrochloride] | 4.59 | 267 to 269 | 8.49 | 1.359 | 15.04 | 2.409 | 24 | 46.4 | 0.52 | 4.83 | 0.57
Cl.O=C1N=C(N2CCC(N3CCOCC3)CC2)N/C1=C\c1cccc(Oc2ccccc2)c1 [Compound 10, (Z)-5-(3-Phenoxybenzylidene)-2-(4-morpholinopiperidin-1-yl)-imidazol-4(5H)-one hydrochloride] | 4.65 | 289 to 292 | 6.92 | 1.108 | 12.44 | 1.992 | 54 | 63.8 | 0.85 | 4.58 | 1.18
Cl.O=C1NC(N2CCOCC2)=N/C1=C\c1ccc(-c2ccccc2)cc1 [Compound 7, (Z)-5-(Biphen-4-ylmethylene)-2-morpholino-3H-imidazol-4(5H)-one hydrochloride] | 4.58 | 248 to 252 | 7.31 | 0.955 | 7.09 | 0.927 | 53.5 | 54.2 | 0.99 | 4.75 | 0.67
NC1=N/C(=C\c2ccc(-c3ccccc3)cc2)C(=O)N1CCN1CCOCC1 [Compound 14] | 4.56 |  | 6.22 | 0.814 | 6.48 | 0.847 | 36.9 | 57.4 | 0.64 | 4.60 | 0.89
Cl.NC1=N/C(=C\c2cc3ccccc3c3ccccc23)C(=O)N1CCCN1CCOCC1 [Compound 20, (Z)-5-(Phenanthren-9-ylmethylene)-2-amino-3-(3-morpholinopropyl)-imidazol-4(5H)-one hydrochloride] | 4.76 | 238 to 240 | 5.59 | 0.896 | 7.72 | 1.237 | 19.6 | 24.9 | 0.79 | 4.83 | 0.85

Now from value to molecule, other results behind:

pIC50 [4] | melting point [°C] | FAR Quotient (%) (ABCB1 efflux pump; concentration 2 µM) | FAR (fluorescence activity ratio) (ABCB1 efflux pump; concentration 2 µM) | FAR Quotient (%) (ABCB1 efflux pump; concentration 20 µM) | FAR (fluorescence activity ratio) (ABCB1 efflux pump; [5]) | Structure (SMILES) | IC50 at 24 h [1] [µM] | IC50 at 24 h [2] [µM] | selectivity ratio at 24 h [2] | pIC50 [3] | SI (selectivity index), antiproliferative [4]
4.78 | 305 to 307 | 5.86 | 0.766 | 12.58 | 1.645 | Cl.O=C1N=C(N2CCN(CCN3CCOCC3)CC2)N/C1=C\c1ccc(-c2ccccc2)cc1 [Compound 9, (Z)-5-(Biphen-4-ylmethylene)-2-(4-(2-morpholinoethyl)piperazin-1-yl)-imidazol-4(5H)-one hydrochloride] | 12.8 | 18.1 | 0.71 | 5.11 | 0.47
4.87 | 248 to 252 | 6.78 | 0.887 | 16.98 | 2.221 | Cl.NC1=N/C(=C\c2ccc(-c3ccccc3)cc2)C(=O)N1CCCN1CCOCC1 [Compound 15, (Z)-5-(Biphen-4-ylmethylene)-2-amino-3-(3-morpholinopropyl)-imidazol-4(5H)-one hydrochloride] | 17.5 | 20.8 | 0.84 | 4.99 | 0.75
4.85 | 210 to 212 | 5.80 | 0.929 | 14.37 | 2.301 | Cl.NC1=N/C(=C\c2ccc(Oc3ccccc3)cc2)C(=O)N1CCCN1CCOCC1 [Compound 17, (Z)-5-(4-Phenoxybenzylidene)-2-amino-3-(3-morpholinopropyl)-imidazol-4(5H)-one hydrochloride] | 21.5 | 23.4 | 0.92 | 4.91 | 0.85
5.76 |  |  |  |  |  | COc1cccc2c1C(=O)c1c(O)c3c(c(O)c1C2=O)C[C@@](O)(C(=O)CO)C[C@@H]3O[C@H]1C[C@H](N)[C@H](O)[C@H](C)O1 [DOX, doxorubicin, reference compound] | 0.7 | 2.14 | 0.33 | 6.55 | 0.16
4.92 |  | 7.09 | 0.927 | 18.55 | 2.426 | NC1=N/C(=C\c2cccc(Oc3ccccc3)c2)C(=O)N1CCCN1CCOCC1 [Compound 16] | 16 | 31.3 | 0.51 | 4.94 | 0.94

From article PMC7249047, “Search for ABCB1 Modulators Among 2-Amine-5-Arylideneimidazolones as a New Perspective to Overcome Cancer Multidrug Resistance” (Molecules, 2020)
